ChEMBL document CHEMBL5214928, “DEAD-Box Helicase DDX3X as a Host Target against Emerging Viruses: New Insights for Medicinal Chemical Approaches” (J Med Chem, 2022)

Key:
[1] = biological target: T1, ATP-dependent RNA helicase DDX3X (Homo sapiens, UniProt O00571); experiment: Binding affinity to DDX3X (unknown origin) assessed as inhibition constant
Hepatitis C virus [2] = experiment: Antiviral activity against HCV-1 infected in human Huh-7 cells assessed as reduction in viral replication; assay type: functional, organism-based, Hepacivirus hominis; details: genotype 1, Huh-7
Huh-7 = experiment: Cytotoxicity against human Huh-7 cells assessed as reduction in cell viability; assay type: functional
[3] = Selectivity index, ratio of CC50 for human Huh-7 cells to EC50 for HCV-1 infected in human Huh-7 cells; assay type: toxicity, cell-based; details: read-out: Ratio CC50/EC50
dengue virus type 2 [4] = experiment: Antiviral activity against DENV-2 infected in African green monkey Vero cells assessed as reduction in viral replication incubated for 22 hrs by plaque assay; assay type: functional, organism-based
[5] = Cytotoxicity against African green monkey Vero cells assessed as reduction in cell viability incubated for 22 hrs by XTT assay; assay type: toxicity, cell-based; details: chlorocebus sabaeus
[6] = Selectivity index, ratio of CC50 for African green monkey Vero cells to EC50 for DENV-2 infected in African green monkey Vero cells; assay type: toxicity; details: read-out: Ratio CC50/EC50
Zika virus = experiment: Antiviral activity against ZIKV infected in African green monkey Vero cells assessed as reduction in viral replication incubated for 22 hrs by plaque assay; assay type: functional, organism-based
West Nile virus [7] = experiment: Antiviral activity against WNV infected in African green monkey Vero cells assessed as reduction in viral replication incubated for 22 hrs by plaque formation assay; assay type: functional, organism-based
[8] = Selectivity index, ratio of CC50 for African green monkey Vero cells to EC50 for ZIKV infected in African green monkey Vero cells; assay type: toxicity; details: read-out: Ratio CC50/EC50
[9] = Selectivity index, ratio of CC50 for African green monkey Vero cells to EC50 for WNV infected in African green monkey Vero cells; assay type: toxicity; details: read-out: Ratio CC50/EC50
SARS-CoV-2 = experiment: Antiviral activity against SARS-CoV-2 isolate 2019-nCoV/Italy-INMI1 infected in African green monkey Vero E6 cells assessed as reduction in viral replication at MOI of 0.01 incubated for 5 days by qRT-PCR analysis; assay type: functional, organism-based; details: Severe acute respiratory syndrome coronavirus 2, 2019-nCoV/Italy-INMI1, Vero C1008, 120 h
[10] = Cytotoxicity against African green monkey Vero E6 cells assessed as reduction in cell viability; assay type: toxicity, cell-based, Vero C1008; details: chlorocebus sabaeus
[11] = system: Respiratory syncytial virus; experiment: Antiviral activity against RSV infected in African green monkey Vero cells assessed as reduction in viral replication incubated for 22 hrs by plaque formation assay; assay type: functional, organism-based; details: human respiratory syncytial virus
[12] = Selectivity index, ratio of CC50 for African green monkey Vero cells to EC50 for RSV infected in African green monkey Vero cells; assay type: toxicity; details: read-out: Ratio CC50/EC50
Human respirovirus 3 = experiment: Antiviral activity against hPIV-3 infected in African green monkey Vero cells assessed as reduction in viral replication incubated for 22 hrs by plaque formation assay; assay type: functional, organism-based; details: Human respirovirus 3, Vero
[13] = Selectivity index, ratio of CC50 for African green monkey Vero cells to EC50 for hPIV-3 infected in African green monkey Vero cells; assay type: toxicity; details: read-out: Ratio CC50/EC50
[14] = Half life in mouse administered intraperitoneally; assay type: ADME; details: in vivo, route ip
[15] = system: Japanese encephalitis virus; experiment: Antiviral activity against JEV SA14-14-2 infected in hamster BHK-21 cells assessed as reduction in viral replication by plaque formation assay; assay type: functional, organism-based; details: SA14-14-2, BHK-21
[16] = Cytotoxicity against hamster BHK-21 cells assessed as reduction in cell viability at MOI of 0.01 incubated for 48 hrs by plaque formation assay; assay type: toxicity, cell-based, Mesocricetus auratus
[17] = Selectivity index, ratio of CC50 for hamster BHK-21 cells to EC50 for JEV SA14-14-2 infected in hamster BHK-21 cells; assay type: toxicity, cell-based; details: read-out: Ratio CC50/EC50
[18] = system: Human immunodeficiency virus 1; experiment: Antiviral activity against HIV-1 NL4-3 infected in PBMC (unknown origin) assessed as reduction in viral replication; assay type: functional, organism-based; details: Human immunodeficiency virus 1, NL4-3, PBMC
[19] = Cytotoxicity against PBMC (unknown origin) assessed as reduction in cell viability; assay type: toxicity, cell-based
[20] = Selectivity index, ratio of CC50 for hepatoma cells (unknown origin) to EC50 for HCV-1 infected in hepatoma cells (unknown origin); assay type: toxicity, cell-based; details: read-out: Ratio CC50/EC50
Hepatitis C virus [21] = experiment: Antiviral activity against HCV-1 infected in human LucUbiNeo-ET cells assessed as reduction in viral replication incubated for 2 days by luminometry; assay type: functional, organism-based, Hepacivirus hominis; details: genotype 1, LucUbiNeo-ET, 48 h
[22] = Cytotoxicity against human LucUbiNeo-ET cells assessed as reduction in cell viability by MTT assay; assay type: functional
[23] = Selectivity index, ratio of CC50 for human LucUbiNeo-ET cells to EC50 for HCV-1 infected in human LucUbiNeo-ET cells; assay type: toxicity, cell-based; details: read-out: Ratio CC50/EC50
West Nile virus [24] = experiment: Antiviral activity against WNV infected in human Huh-7 cells assessed as reduction in viral replication; assay type: functional, organism-based
[25] = Selectivity index, ratio of CC50 for human Huh-7 cells to EC50 for WNV infected in human Huh-7 cells; assay type: toxicity, cell-based; details: read-out: Ratio CC50/EC50
dengue virus type 2 [26] = experiment: Antiviral activity against DENV-2 New Guinea C infected in human Huh-7 cells assessed as reduction in viral replication; assay type: functional, organism-based
[27] = Selectivity index, ratio of CC50 for human Huh-7 cells to EC50 for DENV-2 New Guinea C infected in human Huh-7 cells; assay type: toxicity, cell-based; details: read-out: Ratio CC50/EC50
[28] = Half life in rat administered intravenously; assay type: ADME; details: in vivo, route iv
[29] = Selectivity index, ratio of CC50 for PBMC (unknown origin) to EC50 for HIV-1 NL4-3 infected in PBMC (unknown origin); assay type: toxicity; details: read-out: Ratio CC50/EC50
[30] = biological target: T1, ATP-dependent RNA helicase DDX3X; experiment: Inhibition of recombinant DDX3X (unknown origin) helicase activity using 6-FAM-labeled dsRNA as substrate incubated for 30 mins by fluorescence based assay
[31] = system: Human immunodeficiency virus 1; experiment: Antiviral activity against recombinant HIV-1 infected in CD4+ human HeLa cells assessed as reduction in viral replication; assay type: functional, organism-based; details: Human immunodeficiency virus 1, HeLa
HeLa = experiment: Cytotoxicity against human HeLa cells assessed as reduction in cell viability incubated for 72 hrs with replacement of medium containing compound for every 24 hrs by MTS based Cell Titer 96 viability assay; assay type: functional
[32] = Selectivity index, ratio of CC50 for human HeLa cells to EC50 for recombinant HIV-1 infected in CD4+ human HeLa cells; assay type: toxicity, cell-based; details: read-out: Ratio CC50/EC50
[33] = biological target: T1, ATP-dependent RNA helicase DDX3X; experiment: Inhibition of DDX3X (unknown origin) helicase activity
[34] = Half life in mouse administered intravenously; assay type: ADME; details: in vivo, route iv
Hepatitis C virus [35] = experiment: Antiviral activity against HCV-1 infected in hepatoma cells (unknown origin) assessed as reduction in viral replication; assay type: functional, organism-based, Hepacivirus hominis; details: genotype 1, Hepatoma cell line
Hepatoma cell line = experiment: Cytotoxicity against hepatoma cells (unknown origin) assessed as reduction in cell viability; assay type: functional

T1 sequence (O00571 whole entry): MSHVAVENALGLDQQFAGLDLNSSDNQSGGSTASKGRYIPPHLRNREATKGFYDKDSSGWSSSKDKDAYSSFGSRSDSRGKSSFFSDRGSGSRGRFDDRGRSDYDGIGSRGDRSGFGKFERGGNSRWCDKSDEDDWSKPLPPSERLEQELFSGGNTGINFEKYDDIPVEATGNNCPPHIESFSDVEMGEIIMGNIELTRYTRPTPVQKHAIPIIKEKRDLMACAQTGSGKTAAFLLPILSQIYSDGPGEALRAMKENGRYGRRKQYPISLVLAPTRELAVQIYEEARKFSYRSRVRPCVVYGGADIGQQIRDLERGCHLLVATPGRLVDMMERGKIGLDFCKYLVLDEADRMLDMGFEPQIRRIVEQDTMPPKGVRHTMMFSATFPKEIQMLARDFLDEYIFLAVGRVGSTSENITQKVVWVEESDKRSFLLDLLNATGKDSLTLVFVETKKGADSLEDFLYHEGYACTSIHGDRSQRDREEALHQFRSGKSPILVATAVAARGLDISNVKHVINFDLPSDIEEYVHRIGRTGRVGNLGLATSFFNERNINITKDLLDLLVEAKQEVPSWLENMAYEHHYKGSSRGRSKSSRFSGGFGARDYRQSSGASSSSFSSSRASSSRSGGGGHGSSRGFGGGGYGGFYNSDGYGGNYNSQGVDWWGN

SMILES: COc1cc(/C=C2\SC(=S)N(CCC(=O)Nc3ccccc3O)C2=O)cc(OC)c1OC
- Ki [1]: 3.9 µM

SMILES: COc1ccc(/C=C2\SC(=S)N(CCC(=O)Nc3cccc(O)c3)C2=O)cc1
- Ki [1]: 2 µM

SMILES: COc1ccc(Cn2c3ncnc4c(ncn4Cc4ccc(OC)cc4)c-3nc2=O)cc1
- EC50 (Hepatitis C virus [2]): 2 µM
- CC50 (Huh-7): < 10 µM
- selectivity ratio [3]: < 5
- EC50 (dengue virus type 2 [4]): 8.5 µM
- CC50 at 22 h [5]: 29.7 µM
- selectivity ratio [6]: 3.5
- EC50 (Zika virus): 7 µM
- EC50 (West Nile virus [7]): 8.5 µM
- selectivity ratio [8]: 4.2
- selectivity ratio [9]: 3.5
- EC50 (SARS-CoV-2): < 5 µM
- CC50 [10]: > 30 µM
- EC50 [11]: 13.4 µM
- selectivity ratio [12]: 2.2
- EC50 (Human respirovirus 3): 28.2 µM
- selectivity ratio [13]: 1
- half-life [14]: 7 h

SMILES: Cc1ccccc1NC(=O)Nc1cccc([N+](=O)[O-])c1
- EC50 [15]: 10 µM
- CC50 at 48 h [16]: > 50 µM
- selectivity ratio [17]: > 5

SMILES: CCCCc1cn(-c2ccc(NC(=O)Nc3ccccc3C)cc2)nn1
- EC50 [18]: 1.1 µM
- CC50 [19]: > 100 µM
- selectivity ratio [20]: > 200
- EC50 (Hepatitis C virus [21]): 0.97 µM
- CC50 [22]: 49.8 µM
- selectivity ratio [23]: 51
- EC50 (West Nile virus [24]): 16.5 µM
- selectivity ratio [25]: > 12
- EC50 [15]: 20 µM
- CC50 at 48 h [16]: > 50 µM
- selectivity ratio [17]: > 2.5
- EC50 (dengue virus type 2 [26]): 2.55 µM
- selectivity ratio [27]: 78
- half-life [28]: 3 h
- selectivity ratio [29]: 91

SMILES: O=[N+]([O-])c1cccc(S(=O)(=O)Nc2ccccc2O)c1
- IC50 [30]: 0.36 µM

SMILES: O=C(CCN1C(=O)/C(=C/c2cccc(Br)c2)SC1=S)Nc1cccc(O)c1
- Ki [1]: 90 µM

SMILES: OCCc1cc(Nc2ccc(F)cc2)nc(N/N=C/c2ccccc2O)n1
- EC50 [31]: 6.5 µM
- CC50 (HeLa): 65 µM
- selectivity ratio [32]: 10

SMILES: Oc1ccccc1/C=N/Nc1nc(Nc2cccc(Cl)c2)nc(NN2CCOCC2)n1
- Ki [1]: 0.4 µM

SMILES: COc1cccc(NC(=O)CCN2C(=O)/C(=C/c3ccccc3O)SC2=S)c1
- Ki [1]: 10 µM

SMILES: Cc1ccccc1NC(=O)Nc1ccc(-n2cc(CO)nn2)cc1
- Ki [33]: 17.5 µM

SMILES: C(=N\Nc1nc(Nc2ccccc2)nc(Nc2ccccc2)n1)/c1ccccc1
- Ki [1]: 7.5 µM

SMILES: CC(C)Cc1cn(-c2ccc(NC(=O)Nc3ccc4cnccc4c3)cc2)nn1
- IC50 [33]: 0.15 µM
- EC50 (Hepatitis C virus [21]): 0.9 µM
- CC50 [22]: > 312 µM
- selectivity ratio [23]: 94
- half-life [34]: 5 h

SMILES: CCCCCCCCCCCCCCCCCCNC1=NC(=O)C2C(N=CN2[C@@H]2O[C@H](CO)[C@@H](O)[C@H]2O)C(=O)N1 (stereo partly drawn)
- EC50 (Hepatitis C virus [35]): 18 µM
- CC50 (Hepatoma cell line): > 630 µM
- selectivity ratio [20]: > 35
- CC50 (Huh-7): > 100 µM
- EC50 (West Nile virus [24]): 0.51 µM
- selectivity ratio [25]: > 195

SMILES: Oc1ccc(Cl)cc1/C=N/Nc1nc(NCc2ccccc2)nc(NN2CCOCC2)n1
- Ki [1]: 1.9 µM

SMILES: COc1cc(/C=C2\SC(=S)N(CCC(=O)Nc3ccccc3Cl)C2=O)cc(OC)c1OC
- Ki [1]: 0.1 µM

SMILES: COc1ccc(/C=C2\SC(=S)N(CCC(=O)Nc3ccccc3OC)C2=O)cc1
- Ki [1]: 11 µM

SMILES: O=[N+]([O-])c1cccc(/C=N/Nc2nc(NCc3ccccc3)nc(NNc3ccc(F)cc3)n2)c1O
- Ki [1]: 4 µM

SMILES: O=C(CCN1C(=O)/C(=C/c2ccc3c(c2)OCO3)SC1=S)Nc1ccccc1[N+](=O)[O-]
- Ki [1]: 1 µM

SMILES: O=C(NCCN1C(=O)/C(=C/c2ccccc2O)SC1=S)c1cccc(Br)c1
- Ki [1]: 4.2 µM
